Experimental data as given in patent US20130289071A1, “TETRAZOLYL-TETRAHYDROPYRIDINE COMPOUNDS FOR INFLAMMATION AND IMMUNE-RELATED USES” (Synta Pharmaceuticals Corp., priority 2010, published 2013).

What follows are molecules tested on IL-2 production (assay: Inhibition of IL-2 production (Jurkat/PHA/1% FBS, ELISA)). Conditions: Homo sapiens, Jurkat, 20 h, Jurkat cells, PHA 2.5 μg/mL.
Format: cell-based
Description: JurkaT-cells were placed in a 96 well plate (0.5 million cells per well in 1% FBS medium), and then a test compound of this invention was added at different concentrations. After 10 minutes, the cells were activated with PHA (final concentration 2.5 μg/mL) and incubated for 20 hours at 37° C. under 5% CO2. The final volume was 200 μL. Following incubation, the cells were centrifuged, and the supernatants collected and stored at −70° C. prior to assaying for IL-2 production. A commercial ELISA kit (IL-2 Eli-pair, Diaclone Research, Besancon, France) was used to detect production of IL-2, from which dose response curves were obtained. The IC50 value was calculated as the concentration at which 50% of maximum IL-2 production after stimulation was inhibited versus a non-stimulation control.
In the case of `[2H]C([2H])([2H])n1nnc(N2CCC(C)=C(c3ccc(NC(=O)c4cccc(F)c4F)cc3)C2)n1` [Compound 1], the IC50 is reported as 10 nM. For `CC1=C(c2ccc(NC(=O)c3cccc(F)c3F)cc2)CN(c2nnn(CF)n2)CC1` [Compound 2], the IC50 was 11 nM. Molecule `CCC1=C(c2ccc(NC(=O)c3cccc(F)c3F)cc2)CN(c2nnn(CF)n2)CC1` [Compound 3] has an IC50 of 12 nM. In the case of `Cn1nnc(N2CCC(Cl)=C(c3ccc(NC(=O)c4c(F)cccc4F)nc3)C2)n1` [Compound 4], the IC50 is reported as 12 nM. Work on `CC1=C(c2cnc(NC(=O)c3c(F)cccc3Cl)cn2)CN(c2nnn(C)n2)CC1` [Compound 5] yielded an IC50 of 13 nM. Molecule `CC1=C(c2ccc(NC(=O)c3cncc(F)c3C)cc2)CN(c2nnn(C)n2)CC1` [Compound 6] has an IC50 of 13 nM. With `CCC1=C(c2ccc(NC(=O)c3cccc(F)c3F)cc2)CN(c2nnn(C)n2)CC1` [Compound 7] the IC50 was 14 nM. Molecule `CC1=C(c2ccc(NC(=O)c3c(F)cccc3F)nc2)CN(c2nnn(C)n2)CC1` [Compound 8] has an IC50 of 15 nM. With `CC1=C(c2ccc(NC(=O)c3c(F)cccc3Cl)nc2)CN(c2nnn(C)n2)CC1` [Compound 13] the IC50 was 17 nM. For `CC1=C(c2ccc(NC(=O)c3cccc(F)c3F)cc2)CN(c2nnn(C(F)F)n2)CC1` [Compound 21], the IC50 was 26 nM. Work on `CCC1=C(c2ccc(NC(=O)c3cccc(F)c3F)cc2)CN(c2nnn(CC)n2)CC1` [Compound 24] yielded an IC50 of 33 nM. `Cn1nnc(N2CCC(Cl)=C(c3ccc(NC(=O)c4ccncc4F)cc3)C2)n1` [Compound 28] was tested, and the IC50 was 39 nM. With `CC1=C(c2cnc(NC(=O)c3c(F)cccc3F)cn2)CN(c2nnn(C)n2)CC1` [Compound 32] the IC50 was 46 nM. `CCn1nnc(N2CCC(C)=C(c3ccc(NC(=O)c4cccc(F)c4F)cc3)C2)n1` [Compound 34] showed an IC50 of 47 nM. Molecule `CC(C)C1=C(c2cnc(NC(=O)c3c(F)cccc3F)cn2)CN(c2nnn(C)n2)CC1` [Compound 35] has an IC50 of 49 nM. With `CC1=C(c2ccc(NC(=O)c3ccccc3F)nc2)CN(c2nnn(C)n2)CC1` [Compound 42] the IC50 was 55 nM. `Cn1nnc(N2CCC(Cl)=C(c3ccc(NC(=O)c4ccncc4Cl)cc3)C2)n1` [Compound 43] was tested, and the IC50 was 56 nM. For `CC1=C(c2ccc(NC(=O)c3c(F)cccc3F)cc2)CN(c2nnn(C(C)C)n2)CC1` [Compound 44], the IC50 was 56 nM. Work on `COc1cc(C)c(C(=O)Nc2ccc(C3=C(C)CCN(c4nnn(C)n4)C3)cc2)cn1` [Compound 48] yielded an IC50 of 62 nM. `CCC1=C(c2cnc(NC(=O)c3ccc(F)cc3F)cn2)CN(c2nnn(C)n2)CC1` [Compound 49] was tested, and the IC50 was 67 nM. `CC1=C(c2cnc(C(=O)Nc3c(F)cccc3F)cn2)CN(c2nnn(C)n2)CC1` [Compound 50] gave an IC50 of 74 nM. In the case of `CC1=C(c2ccc(NC(=O)c3ccccc3Cl)nc2)CN(c2nnn(C)n2)CC1` [Compound 51], the IC50 is reported as 75 nM. In the case of `CCCn1nnc(N2CCC(C)=C(c3ccc(NC(=O)c4cccc(F)c4F)cc3)C2)n1` [Compound 52], the IC50 is reported as 77 nM. Work on `CC1=C(c2ccc(NC(=O)c3cc(F)ccc3Cl)cc2)CN(c2nnn(C)n2)CC1` [Compound 53] yielded an IC50 of 85 nM. Molecule `CCn1nnc(N2CCC(C)=C(c3ccc(NC(=O)c4cnccc4C)cc3)C2)n1` [Compound 55] has an IC50 of 96 nM. With `CC1=C(c2ccc(NC(=O)c3c(Cl)cncc3Cl)cc2)CN(c2nnn(C)n2)CC1` [Compound 57] the IC50 was 100 nM. `CC1=C(c2cnc(NC(=O)c3ccc(F)cc3F)cn2)CN(c2nnn(C)n2)CC1` [Compound 58] gave an IC50 of 104 nM. Molecule `CCc1c(F)cncc1C(=O)Nc1ccc(C2=C(C)CCN(c3nnn(CC)n3)C2)cc1` [Compound 59] has an IC50 of 105 nM. `CC1=C(c2ccc(NC(=O)c3cccnc3C)cc2)CN(c2nnn(C)n2)CC1` [Compound 60] showed an IC50 of 114 nM. In the case of `CC1=C(c2ccc(NC(=O)c3cccc(Cl)c3Cl)cc2)CN(c2nnn(C)n2)CC1` [Compound 62], the IC50 is reported as 124 nM. For `CC1=C(c2ccc(NC(=O)c3ncncc3C)cc2)CN(c2nnn(C)n2)CC1` [Compound 63], the IC50 was 124 nM. In the case of `CC(C)C1=C(c2ccc(NC(=O)c3ccc(F)cc3F)nc2)CN(c2nnn(C)n2)CC1` [Compound 64], the IC50 is reported as 126 nM. `CC1=C(c2ccc(C(=O)Nc3c(F)cccc3F)cn2)CN(c2nnn(C)n2)CC1` [Compound 65] gave an IC50 of 127 nM. Work on `CC1=C(c2cnc(NC(=O)c3cncc(F)c3C)cn2)CN(c2nnn(C)n2)CC1` [Compound 66] yielded an IC50 of 147 nM. `Cc1ccncc1C(=O)Nc1ccc(C2=C(Cl)CCN(c3nnn(C)n3)C2)cn1` [Compound 67] was tested, and the IC50 was 150 nM. With `COc1cccc(F)c1C(=O)Nc1ccc(C2=C(C)CCN(c3nnn(C)n3)C2)cc1` [Compound 68] the IC50 was 163 nM. `CC1=C(c2ccc(NC(=O)c3cnc(C)cc3C)cc2)CN(c2nnn(C)n2)CC1` [Compound 69] gave an IC50 of 219 nM. `CCn1nnc(N2CCC(C)=C(c3ccc(NC(=O)c4cc(C)ncc4C)cc3)C2)n1` [Compound 70] was tested, and the IC50 was 289 nM. With `CC1=C(c2ccc(NC(=O)c3cccc(F)c3F)cc2)CN(c2nnn(CC(C)C)n2)CC1` [Compound 71] the IC50 was 312 nM. `CC1=C(c2cnc(NC(=O)c3cnccc3C)cn2)CN(c2nnn(C)n2)CC1` [Compound 72] was tested, and the IC50 was 335 nM. Molecule `CC1=C(c2cnc(NC(=O)c3ccncc3Cl)cn2)CN(c2nnn(C)n2)CC1` [Compound 73] has an IC50 of 423 nM. Molecule `CCn1nnc(N2CCC(C)=C(c3ccc(NC(=O)c4cncnc4C)cc3)C2)n1` [Compound 74] has an IC50 of 698 nM. For `CC1=C(c2cnc(NC(=O)c3cc(F)cc(F)c3)cn2)CN(c2nnn(C)n2)CC1` [Compound 75], the IC50 was 803 nM. Work on `COc1ccc(F)cc1C(=O)Nc1ccc(C2=C(C)CCN(c3nnn(C)n3)C2)cc1` [Compound 76] yielded an IC50 of 1000 nM.

Same assay, conditions: Jurkat cells, PHA 2.5 μg/mL, 20 hours
In the case of `CC1=C(c2ccc(NC(=O)c3cccc(F)c3F)cc2)CN(c2nnn(C)n2)CC1` [Compound 19], the IC50 is reported as 22 nM.
